Assay type in all cases: cell-based
The test system of test [1] is Bacillus subtilis ATCC 6051. As to conditions: ATCC 6051, 2 h, pH 7.2. The protocol:
(§1) The antimicrobial activity of the peptides was determined against Gram-negative bacteria, including V. alginolyticus (A056), E. coli (DH5α), and V. parahaemolyticus (2013V-1174), which were obtained from the South China Sea Institute of Oceanology, Chinese Academy of Sciences. The activity was also tested against the Gram-positive bacteria S. aureus ATCC 25923 and B. subtilis ATCC 6051. To assess the antimicrobial activities of the peptides, bacterial cells were cultured to the logarithmic growth phase and then diluted to 10^6–1.5 × 10^7 CFU/mL with PBS (0.01 M, pH 7.2). Equal volumes of serially diluted peptides, with concentrations ranging from 30 to 450 μM in PBS, and bacteria suspension were mixed and incubated at room temperature for 2 h, respectively. Then, 6 μL of each serially diluted mixture was plated on sterile 12-well agar plates, followed by incubation for 11 to 12 h, and the colonies were assessed to determine the MICs and MBCs. The MICs were expressed (in µM) as an [a]–[b] concentration interval, where [a] is the highest peptide concentration at which bacteria were growing and [b] is the lowest concentration that caused 100% growth inhibition. Cultures without peptides were employed as controls. All the tests were performed in triplicate and repeated three times.

A further test relates to Escherichia coli (DH5α). How it is done:
as §1

The test system of test [2] is Staphylococcus aureus ATCC 25923. As to conditions: ATCC 25923, 2 h, pH 7.2. How it is done:
as §1

Test [3] concerns Vibrio alginolyticus (A056). The protocol: as §1
Test [4] concerns Vibrio parahaemolyticus 2013V-1174. As to conditions: 2 h, pH 7.2. The protocol:
as §1

Among the data in paper PMC9317327, “Functional Characterization, Antimicrobial Effects, and Potential Antibacterial Mechanisms of NpHM4, a Derived Peptide of Nautilus pompilius Hemocyanin” (Marine Drugs, 2022) are MBC and MIC values, retold here.

In brackets after ≈: the same amount, converted by molar mass. Where two headings read alike, the source gives them in different places. Where a SMILES comes first, the peptide text is derived from it. Some results are limits rather than exact numbers.

For the compound `CC[C@H](C)[C@H](NC(=O)CNC(=O)[C@H](Cc1c[nH]cn1)NC(=O)[C@H](CCCNC(=N)N)NC(=O)[C@H](CC(C)C)NC(=O)[C@H](Cc1ccccc1)NC(=O)CNC(=O)[C@H](C)NC(=O)[C@H](Cc1ccccc1)NC(=O)[C@@H](NC(=O)[C@@H](N)CCCNC(=N)N)C(C)C)C(=O)N[C@@H](CCCCN)C(=O)N[C@@H](CCCNC(=N)N)C(=O)N[C@@H](CO)C(=O)N[C@@H](C)C(=O)O` [NpHM1] (H-RVFAGFLRHGIKRSA-OH), the MBC in test [1] is >60 µM; in the test on Escherichia coli (DH5α) (DH5α, 2 h, pH 7.2), >60 µM; in test [2] it was >60 µM; in test [3] (2 h, pH 7.2) it was >150 µM; in test [4] it was >60 µM. For the same compound, the MIC in test [1] is >60 µM; against Escherichia coli (DH5α) (DH5α, 2 h, pH 7.2) it was 15 to 60 µM; in test [2], >60 µM; in test [3] (2 h, pH 7.2), 50 to 150 µM; in test [4], 15 to 60 µM.
Consider `CC[C@H](C)[C@H](NC(=O)CNC(=O)[C@H](Cc1c[nH]cn1)NC(=O)[C@H](CC(C)C)NC(=O)[C@H](CC(C)C)NC(=O)[C@H](Cc1ccccc1)NC(=O)CNC(=O)[C@H](C)NC(=O)[C@H](Cc1ccccc1)NC(=O)[C@@H](NC(=O)[C@@H](N)CCCNC(=N)N)C(C)C)C(=O)N[C@@H](CCCCN)C(=O)N[C@@H](CCCNC(=N)N)C(=O)N[C@@H](CO)C(=O)N[C@@H](CCCNC(=N)N)C(=O)O` [NpHM2] (H-RVFAGFLLHGIKRSR-OH), for which the MIC with Escherichia coli (DH5α) (DH5α, 2 h, pH 7.2) was 30 to 60 µM; in test [3] (2 h, pH 7.2), 70 to 150 µM; in test [4] it was 30 to 60 µM. In addition, the MBC in test [3] (2 h, pH 7.2) is >75 µM; in test [4], >60 µM.
For the compound `CC[C@H](C)[C@H](NC(=O)CNC(=O)[C@H](Cc1c[nH]cn1)NC(=O)[C@H](CC(C)C)NC(=O)[C@H](CC(C)C)NC(=O)[C@H](Cc1ccccc1)NC(=O)CNC(=O)[C@H](C)NC(=O)[C@H](CCCNC(=N)N)NC(=O)[C@@H](NC(=O)[C@@H](N)CCCNC(=N)N)C(C)C)C(=O)N[C@@H](CCCCN)C(=O)N[C@@H](CCCNC(=N)N)C(=O)N[C@@H](CO)C(=O)N[C@@H](C)C(=O)O` [NpHM3] (H-RVRAGFLLHGIKRSA-OH), the MBC in test [1] was >60 µM; against Escherichia coli (DH5α) (DH5α, 2 h, pH 7.2), >60 µM; in test [2], >60 µM; in test [3] (2 h, pH 7.2) it was >150 µM; in test [4], >60 µM. Besides, the MIC in test [1] was >60 µM; with Escherichia coli (DH5α) (DH5α, 2 h, pH 7.2), 15 to 50 µM; in test [2] it was >60 µM; in test [3] (2 h, pH 7.2), 30 to 75 µM; in test [4] it was 15 to 60 µM.
Regarding `CC[C@H](C)[C@H](NC(=O)CNC(=O)[C@H](Cc1c[nH]cn1)NC(=O)[C@H](CC(C)C)NC(=O)[C@H](CC(C)C)NC(=O)[C@H](Cc1ccccc1)NC(=O)CNC(=O)[C@H](C)NC(=O)[C@H](CCCNC(=N)N)NC(=O)[C@@H](NC(=O)[C@@H](N)CCCNC(=N)N)C(C)C)C(=O)N[C@@H](CCCCN)C(=O)N[C@@H](CCCNC(=N)N)C(=O)N[C@@H](CO)C(=O)N[C@@H](CCCNC(=N)N)C(=O)O` [NpHM5] (H-RVRAGFLLHGIKRSR-OH), the MBC in test [1] is >50 µM; in the test with Escherichia coli (DH5α) (DH5α, 2 h, pH 7.2), >50 µM; in test [2] it was >50 µM; in test [3] (2 h, pH 7.2), >70 µM; in test [4] it was >70 µM. Also, the MIC in test [1] is >50 µM; in the test with Escherichia coli (DH5α) (DH5α, 2 h, pH 7.2) it was >50 µM; in test [2] it was >50 µM; in test [3] (2 h, pH 7.2) it was 15 to 70 µM; in test [4] it was 15 to 70 µM.
`CC[C@H](C)[C@H](NC(=O)CNC(=O)[C@H](Cc1c[nH]cn1)NC(=O)[C@H](CCCNC(=N)N)NC(=O)[C@H](CC(C)C)NC(=O)[C@H](Cc1ccccc1)NC(=O)CNC(=O)[C@H](C)NC(=O)[C@H](CCCNC(=N)N)NC(=O)[C@@H](NC(=O)[C@@H](N)CCCNC(=N)N)C(C)C)C(=O)N[C@@H](CCCCN)C(=O)N[C@@H](CCCNC(=N)N)C(=O)N[C@@H](CO)C(=O)N[C@@H](C)C(=O)O` [NpHM6] (H-RVRAGFLRHGIKRSA-OH): the minimum bactericidal concentration (MBC) in test [1] was >50 µM; against Escherichia coli (DH5α) (DH5α, 2 h, pH 7.2) it was >50 µM; in test [2], >50 µM; in test [3] (2 h, pH 7.2) it was >70 µM; in test [4], >60 µM. The MIC in test [1] was >50 µM; with Escherichia coli (DH5α) (DH5α, 2 h, pH 7.2), >50 µM; in test [2], >50 µM; in test [3] (2 h, pH 7.2), >70 µM; in test [4], 15 to 60 µM.
Turning to `CSCC[C@H](NC(=O)[C@H](Cc1ccccc1)NC(=O)CNC(=O)[C@H](C)NC(=O)[C@H](Cc1ccccc1)NC(=O)[C@@H](N)C(C)C)C(=O)N[C@@H](CC(C)C)C(=O)N[C@@H](Cc1c[nH]cn1)C(=O)NCC(=O)N[C@@H](Cc1ccccc1)C(=O)N[C@@H](CCCCN)C(=O)N[C@@H](CCCCN)C(=O)N[C@@H](CO)C(=O)N[C@@H](C)C(=O)N[C@@H](CC(C)C)C(=O)N[C@H](C(=O)O)C(C)C` [NpHN1] (H-VFAGFMLHGFKKSALV-OH), in the test with Escherichia coli (DH5α) (DH5α, 2 h, pH 7.2), the MBC is >450 µM and the MIC lay in the range of 250 to 450 µM. Further, in test [3] (2 h, pH 7.2), the MBC was >260 µM and the MIC was 50 to 260 µM.
Turning to `CC[C@H](C)[C@H](NC(=O)CNC(=O)[C@H](CO)NC(=O)[C@H](CC(C)C)NC(=O)[C@H](CCCNC(=N)N)NC(=O)[C@H](Cc1ccccc1)NC(=O)[C@H](CO)NC(=O)[C@H](C)NC(=O)[C@@H](N)Cc1ccccc1)C(=O)N[C@@H](Cc1c[nH]cn1)C(=O)N[C@H](C(=O)N[C@@H](CO)C(=O)N[C@@H](C)C(=O)N[C@@H](CC(N)=O)C(=O)N[C@H](C(=O)N[C@@H](CCCCN)C(=O)N[C@H](C(=O)N[C@@H](CC(C)C)C(=O)O)C(C)C)C(C)C)[C@@H](C)O` [NpHN2] (H-FASFRLSGIHTSANVKVL-OH), in the test with Escherichia coli (DH5α) (DH5α, 2 h, pH 7.2), the MBC was >500 µM and the MIC lay within 200 to 500 µM. Further, in test [3] (2 h, pH 7.2), the MBC was >280 µM and the MIC fell in the range of 100 to 280 µM.
The like results for `CC[C@H](C)[C@H](NC(=O)[C@H](CS)NC(=O)[C@H](CS)NC(=O)[C@H](C)NC(=O)[C@H](Cc1ccc(O)cc1)NC(=O)[C@H](CCCNC(=N)N)NC(=O)[C@H](Cc1c[nH]cn1)NC(=O)[C@H](CC(C)C)NC(=O)[C@H](C)NC(=O)[C@@H](N)CCCCN)C(=O)N[C@@H](Cc1c[nH]cn1)C(=O)NCC(=O)N[C@@H](CCSC)C(=O)N[C@@H](C)C(=O)N[C@H](C(=O)O)[C@@H](C)O` [NpHN3] (H-KALHRYACCIHGMAT-OH) were, in that order, >450 µM, 250 to 450 µM, >250 µM and 50 to 250 µM.
Turning to `CC[C@H](C)[C@H](NC(=O)[C@H](CCCNC(=N)N)NC(=O)[C@@H](NC(=O)[C@H](CC(N)=O)NC(=O)[C@H](C)NC(=O)[C@H](CO)NC(=O)[C@H](C)NC(=O)[C@H](CCC(N)=O)NC(=O)[C@@H](NC(=O)CNC(=O)[C@H](Cc1c[nH]cn1)NC(=O)[C@H](CC(C)C)NC(=O)[C@H](CC(C)C)NC(=O)[C@H](Cc1ccccc1)NC(=O)CN)[C@@H](C)CC)C(C)C)C(=O)O` [NpHN4] (H-GFLLHGIQASANVRI-OH), in the test with Escherichia coli (DH5α) (DH5α, 2 h, pH 7.2), the MBC was >600 µM and the MIC fell in the range of 200 to 600 µM. For the same compound, in test [3] (2 h, pH 7.2), the MBC was >300 µM and the MIC was 100 to 300 µM.
In the case of `CC[C@H](C)[C@H](NC(=O)CNC(=O)[C@H](Cc1c[nH]cn1)NC(=O)[C@H](CC(C)C)NC(=O)[C@H](CC(C)C)NC(=O)[C@H](Cc1ccccc1)NC(=O)CNC(=O)[C@H](C)NC(=O)[C@H](Cc1ccccc1)NC(=O)[C@@H](NC(=O)[C@@H](N)CCCNC(=N)N)C(C)C)C(=O)N[C@@H](CCCCN)C(=O)N[C@@H](CCCNC(=N)N)C(=O)N[C@@H](CO)C(=O)N[C@@H](C)C(=O)O` [NpHN5] (H-RVFAGFLLHGIKRSA-OH), the MBC in the test with Escherichia coli (DH5α) (E. coli DH5α, 2 h in PBS pH 7.2 at room temperature, plated 11 to 12 h, triplicate, repeated three times) came out at 450 µM (≈ 752 µg/mL); in test [3] (V. alginolyticus A056, 2 h in PBS pH 7.2 at room temperature, plated 11 to 12 h, triplicate, repeated three times), 250 µM (≈ 418 µg/mL). The MIC with Escherichia coli (DH5α) (E. coli DH5α, peptide mixed with bacteria (10^6–1.5 × 10^7 CFU/mL) in PBS 0.01 M pH 7.2, 2 h room temperature, plated on agar 11 to 12 h, interval [a]–[b]: [a] highest concentration with growth, [b] lowest with 100% growth inhibition, triplicate, repeated three times) was 200 to 450 µM; in test [3] (V. alginolyticus A056, 2 h in PBS pH 7.2 at room temperature, plated 11 to 12 h, interval [a]–[b]: [a] highest concentration with growth, [b] lowest with 100% growth inhibition, triplicate, repeated three times), 50 to 250 µM.
Regarding `CC[C@H](C)[C@H](NC(=O)CNC(=O)[C@H](Cc1c[nH]cn1)NC(=O)[C@H](CC(C)C)NC(=O)[C@H](CC(C)C)NC(=O)[C@H](Cc1ccccc1)NC(=O)CNC(=O)[C@H](C)NC(=O)[C@H](Cc1ccccc1)NC(=O)[C@@H](NC(=O)[C@@H](N)CCCNC(=N)N)[C@@H](C)CC)C(=O)NCC(=O)N[C@@H](CCC(N)=O)C(=O)N[C@@H](CO)C(=O)N[C@@H](C)C(=O)O` [NpHN6] (H-RIFAGFLLHGIGQSA-OH), in the test on Escherichia coli (DH5α) (DH5α, 2 h, pH 7.2), the MBC was >500 µM and the MIC fell in the range of 250 to 500 µM. This compound yielded a minimal inhibitory concentration (MIC) in test [3] (2 h, pH 7.2) of 100 to 300 µM.

What is called MBC is the smallest concentration meeting the test's criterion for killing. What is called MIC is the lowest concentration that inhibits growth of the organism. Read a low MIC as greater potency.
